Measured values taken from US7786141B2 (Vertex Pharmaceuticals Incorporated, priority 2004, dated 2010).
pEC50: −log10 of the molar value. Read-outs that look alike come from different tables or passages of the source.

Legend:
M1 muscarinic receptor = target: T1, M1 muscarinic receptor (Homo sapiens, UniProt P11229); assay: Functional mobilization of intracellular calcium (FLIPR) in M1-CHO cells; format: cell-based; conditions: for pEC50: CHO cells expressing M1, calcium mobilization
T1 construct: expressed in transfected cells; host or cells: CHO (M1-CHO)
T1 sequence (P11229 1-460): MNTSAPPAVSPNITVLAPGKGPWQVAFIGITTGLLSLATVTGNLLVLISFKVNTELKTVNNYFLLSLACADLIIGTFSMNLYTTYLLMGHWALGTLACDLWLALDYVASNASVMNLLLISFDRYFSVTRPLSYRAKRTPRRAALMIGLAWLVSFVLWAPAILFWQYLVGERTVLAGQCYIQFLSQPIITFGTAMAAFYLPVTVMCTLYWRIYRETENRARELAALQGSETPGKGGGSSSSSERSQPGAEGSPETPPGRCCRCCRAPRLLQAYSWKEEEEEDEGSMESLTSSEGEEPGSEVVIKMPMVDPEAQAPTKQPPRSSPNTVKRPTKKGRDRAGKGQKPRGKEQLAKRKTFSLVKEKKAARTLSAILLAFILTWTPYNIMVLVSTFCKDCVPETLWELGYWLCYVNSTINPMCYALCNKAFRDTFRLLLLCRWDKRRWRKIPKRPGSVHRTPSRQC
Procedure, shortened: (§1)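 Two modes: direct compound addition for agonism, or 15 min compound pre-incubation (or co-application) before carbachol at EC80 for inhibition. Calcium signal from Fluo-3 AM or Calcium 3 dye in CHO cells, 1 mM probenecid, pH 7.4, read 60 sec at 488/540 nm; DMSO 0.5% final.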

M4 muscarinic receptor = target: T2, M4 muscarinic receptor (Homo sapiens, UniProt P08173); assay: Functional mobilization of intracellular calcium (FLIPR) in M4-CHO cells; format: cell-based; conditions: for pEC50: CHO cells expressing M4, calcium mobilization
T2 construct: expressed in transfected cells; host or cells: CHO (M4-CHO)
T2 sequence (P08173 1-479): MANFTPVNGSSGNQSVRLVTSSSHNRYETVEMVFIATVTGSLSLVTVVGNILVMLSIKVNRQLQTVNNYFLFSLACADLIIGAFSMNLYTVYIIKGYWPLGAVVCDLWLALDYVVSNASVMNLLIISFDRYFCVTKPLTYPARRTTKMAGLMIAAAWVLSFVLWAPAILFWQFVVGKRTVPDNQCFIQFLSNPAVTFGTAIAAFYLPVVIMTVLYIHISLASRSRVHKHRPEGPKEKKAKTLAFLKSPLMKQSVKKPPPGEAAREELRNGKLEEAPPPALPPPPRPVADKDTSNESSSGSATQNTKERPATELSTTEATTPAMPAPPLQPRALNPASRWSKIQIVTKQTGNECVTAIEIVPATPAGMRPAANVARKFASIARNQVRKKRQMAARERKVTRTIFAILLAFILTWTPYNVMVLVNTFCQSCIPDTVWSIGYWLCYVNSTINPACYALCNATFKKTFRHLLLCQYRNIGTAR
Procedure, shortened: as §1

[1] = Table 4, 100% efficacy is the maximum response obtained with the Carbachol control
[2] = Table 4, M1 receptor, calcium mobilization (FLIPR)
[3] = Table 4, M4 receptor, calcium mobilization (FLIPR)
[4] = Table 4, modulating M1 receptor
[5] = Table 4, modulating M4 receptor
[6] = M1 receptor, calcium mobilization
[7] = M1 receptor, calcium mobilization, read-out: M1 Efficacy
[8] = M4 receptor, calcium mobilization
[9] = M4 receptor, calcium mobilization, read-out: M4 Efficacy
[10] = 100% efficacy is the maximum response obtained with the Carbachol control, Table 5

SMILES	Emax (M1 muscarinic receptor; [1]) [%]	Emax (M4 muscarinic receptor; [1]) [%]	M1 Activity (M1 muscarinic receptor; [4])	M4 Activity (M4 muscarinic receptor; [5])	also measured
O=C(N[C@H]1CC2(CCN(C3CCCCC3)CC2)c2ccccc21)N1CCCC1 [compound 842]	< 25	< 25	–	–	M1 Activity (M1 muscarinic receptor; [2]): x (activity was measured to be greater than 5.0 μM); M4 Activity (M4 muscarinic receptor; [3]): xxx (activity was measured to be less than 2.0 μM)
O=C(O)C1CC2(CCN(C3CCCCC3)CC2)c2ccccc21 (stereo not drawn) [compound 612]	< 25	25 to 100	x (activity was measured to be greater than 5.0 μM)	x (activity was measured to be greater than 5.0 μM)	–
CCOC(=O)N1CCC(N2CCC3(CC2)CN(C(C)=O)c2c(C(F)(F)F)cccc23)CC1 [compound 551]	< 25	25 to 100	x (activity was measured to be greater than 5.0 μM)	x (activity was measured to be greater than 5.0 μM)	–
CCC=CCOC(=O)N1C2CCC1CC(N1CCC3(CC1)CN(C(C)=O)c1ccccc13)C2 (stereo not drawn) [compound 618]	25 to 100	25 to 100	xxx (activity was measured to be less than 2.0 μM)	xxx (activity was measured to be less than 2.0 μM)	–
CCCC#CCOC(=O)N1CC[C@@H](CN2CCC3(CC2)CN(C(=O)N(C)C)c2ccc(F)cc23)C1 [compound 527]	25 to 100	25 to 100	xxx (activity was measured to be less than 2.0 μM)	xxx (activity was measured to be less than 2.0 μM)	–
CC(=O)N[C@H]1CC2(CCN(CC(=O)N3CCOCC3)CC2)c2ccccc21 [compound 480]	< 25	< 25	x (activity was measured to be greater than 5.0 μM)	x (activity was measured to be greater than 5.0 μM)	–
COCCOC(=O)N1CC[C@@H](CN2CCC3(CC2)CN(C(C)=O)c2ccccc23)C1 [compound 459]	25 to 100	< 25	x (activity was measured to be greater than 5.0 μM)	xx (activity was measured to be between 2.0 μM and 5.0 μM)	–
CCOC(=O)N1CCC(N2CCC3(CC2)CN(C(C)=O)c2c(-c4cccnc4)cccc23)CC1 [compound 728]	25 to 100	< 25	xx (activity was measured to be between 2.0 μM and 5.0 μM)	x (activity was measured to be greater than 5.0 μM)	–
O=C1CC2(CCN(C[C@H]3C[C@H]4C=C[C@H]3C4)CC2)c2ccccc21 [compound 104]	–	–	–	–	M1 Activity (M1 muscarinic receptor; [6]): xxx (activity was measured to be less than 0.1 μM); Emax (M1 muscarinic receptor; [7]): 65 to 85%; M4 Activity (M4 muscarinic receptor; [8]): x (activity was measured to be greater than 1.0 μM); Emax (M4 muscarinic receptor; [9]): < 65%
COCCN1CC2(CCN(C3CCCCCC3)CC2)c2cc(F)ccc21 [compound 958]	25 to 100	25 to 100	–	–	M1 Activity (M1 muscarinic receptor; [2]): xxx (activity was measured to be less than 2.0 μM); M4 Activity (M4 muscarinic receptor; [3]): xxx (activity was measured to be less than 2.0 μM)
CCOC(=O)N1C2CCC1CC(N1CCC3(CC1)CN(C(=O)N(C)C)c1ccc(F)cc13)C2 (stereo not drawn) [compound 362]	–	–	–	–	M1 Activity (M1 muscarinic receptor; [6]): xx (activity was measured to be between 0.1 μM and 1.0 μM); Emax (M1 muscarinic receptor; [7]): 65 to 85%; M4 Activity (M4 muscarinic receptor; [8]): x (activity was measured to be greater than 1.0 μM); Emax (M4 muscarinic receptor; [9]): < 65%
CC(=O)NC1CC2(CCN(C[C@H]3C[C@H]4C=C[C@H]3C4)CC2)c2ccccc21 (stereo partly drawn) [compound 213]	–	–	–	–	M1 Activity (M1 muscarinic receptor; [6]): xx (activity was measured to be between 0.1 μM and 1.0 μM); Emax (M1 muscarinic receptor; [7]): 65 to 85%; M4 Activity (M4 muscarinic receptor; [8]): x (activity was measured to be greater than 1.0 μM); Emax (M4 muscarinic receptor; [9]): < 65%
CCOC(=O)N1CCC(N2CCC3(CC2)CN(c2ccccc2F)c2ccc(F)cc23)CC1 [compound 991]	25 to 100	25 to 100	–	–	M1 Activity (M1 muscarinic receptor; [2]): xxx (activity was measured to be less than 2.0 μM); M4 Activity (M4 muscarinic receptor; [3]): xxx (activity was measured to be less than 2.0 μM)
CCOC(=O)N1CCC(N2CCC3(CC2)CN(c2cncnc2)c2ccc(F)cc23)CC1 [compound 855]	25 to 100	25 to 100	–	–	M1 Activity (M1 muscarinic receptor; [2]): xxx (activity was measured to be less than 2.0 μM); M4 Activity (M4 muscarinic receptor; [3]): xxx (activity was measured to be less than 2.0 μM)
COc1cc2c(cc1OC)C1(CCN(CC3CCCCC3)CC1)C[C@@H]2NC(C)=O [compound 511]	< 25	< 25	x (activity was measured to be greater than 5.0 μM)	x (activity was measured to be greater than 5.0 μM)	–
CCCCC(=O)N1CCC(N2CCC3(CC2)CN(C(=O)N(C)C)c2ccc(F)cc23)CC1 [compound 590]	25 to 100	< 25	xx (activity was measured to be between 2.0 μM and 5.0 μM)	xx (activity was measured to be between 2.0 μM and 5.0 μM)	–
O=C(O[C@@H]1CCOC1)N1CC2(CCN(C3CC4CCC(C3)N4C(=O)O[C@H]3CCOC3)CC2)c2cc(F)ccc21 (stereo partly drawn) [compound 198]	–	–	–	–	M1 Activity (M1 muscarinic receptor; [6]): xx (activity was measured to be between 0.1 μM and 1.0 μM); Emax (M1 muscarinic receptor; [7]): 65 to 85%; M4 Activity (M4 muscarinic receptor; [8]): x (activity was measured to be greater than 1.0 μM); Emax (M4 muscarinic receptor; [9]): < 65%
C#CCOC(=O)N1CC[C@H](CN2CCC3(CC2)CN(C(C)=O)c2cccc(C)c23)C1 [compound 573]	25 to 100	25 to 100	xxx (activity was measured to be less than 2.0 μM)	xxx (activity was measured to be less than 2.0 μM)	–
CN(C)C(=O)N1CC2(CCN(C3CCN(c4cccc(F)c4)CC3)CC2)c2cc(F)ccc21 [compound 1025]	–	–	–	–	Emax (M1 muscarinic receptor; [10]): 25 to 100%; pEC50 (M1 muscarinic receptor; Table 5): 5.00 to 5.70; Emax (M4 muscarinic receptor; [10]): 25 to 100%; pEC50 (M4 muscarinic receptor; Table 5): > 5.70
CC(=O)CN1CC2(CCN(C[C@H]3C[C@H]4C=CC3C4)CC2)c2cc(F)ccc21 [compound 877]	25 to 100	25 to 100	–	–	M1 Activity (M1 muscarinic receptor; [2]): xxx (activity was measured to be less than 2.0 μM); M4 Activity (M4 muscarinic receptor; [3]): xxx (activity was measured to be less than 2.0 μM)
CCOC(=O)N1C2CCC1CC(N1CCC3(CC1)CNc1ccc(F)cc13)C2 (stereo not drawn) [compound 310]	–	–	–	–	M1 Activity (M1 muscarinic receptor; [6]): xx (activity was measured to be between 0.1 μM and 1.0 μM); Emax (M1 muscarinic receptor; [7]): < 65%; M4 Activity (M4 muscarinic receptor; [8]): x (activity was measured to be greater than 1.0 μM); Emax (M4 muscarinic receptor; [9]): < 65%
CC(=O)N1CC2(CCN(C3CCCC3)CC2)c2cc(F)ccc21 [compound 343]	–	–	–	–	M1 Activity (M1 muscarinic receptor; [6]): xxx (activity was measured to be less than 0.1 μM); Emax (M1 muscarinic receptor; [7]): 65 to 85%; M4 Activity (M4 muscarinic receptor; [8]): xxx (activity was measured to be less than 0.1 μM); Emax (M4 muscarinic receptor; [9]): < 65%
COC(=O)N1CC2(CCN(C3CC4CCC(C3)N4C(=O)OC)CC2)c2cc(F)ccc21 (stereo not drawn) [compound 235]	–	–	–	–	M1 Activity (M1 muscarinic receptor; [6]): xx (activity was measured to be between 0.1 μM and 1.0 μM); Emax (M1 muscarinic receptor; [7]): 65 to 85%; M4 Activity (M4 muscarinic receptor; [8]): x (activity was measured to be greater than 1.0 μM); Emax (M4 muscarinic receptor; [9]): 65 to 85%
CC(=O)N[C@H]1CCC2(CCN(CCC3=C(C)CCCC3(C)C)CC2)c2ccccc21 [compound 764]	25 to 100	< 25	xxx (activity was measured to be less than 2.0 μM)	xxx (activity was measured to be less than 2.0 μM)	–
CN(C)C(=O)N1CC2(CCN(C3CCN(C(=O)c4cccc(F)c4)CC3)CC2)c2cc(F)ccc21 [compound 972]	25 to 100	< 25	–	–	M1 Activity (M1 muscarinic receptor; [2]): xx (activity was measured to be between 2.0 μM and 5.0 μM); M4 Activity (M4 muscarinic receptor; [3]): x (activity was measured to be greater than 5.0 μM)
COC(=O)N1CC[C@H](CN2CCC3(CC2)CN(C(=O)N(C)C)c2ccc(F)cc23)C1 [compound 807]	25 to 100	25 to 100	–	–	M1 Activity (M1 muscarinic receptor; [2]): xxx (activity was measured to be less than 2.0 μM); M4 Activity (M4 muscarinic receptor; [3]): xxx (activity was measured to be less than 2.0 μM)
CN(C)C(=O)N1CC2(CCN(C[C@@H]3CCN(c4nccs4)C3)CC2)c2cc(F)ccc21 [compound 1038]	–	–	–	–	Emax (M1 muscarinic receptor; [10]): 25 to 100%; pEC50 (M1 muscarinic receptor; Table 5): 5.00 to 5.70; Emax (M4 muscarinic receptor; [10]): 25 to 100%; pEC50 (M4 muscarinic receptor; Table 5): > 5.70
